In experiment [1] the test system is mixed lymphocyte reaction (popliteal lymph node). The experiment can be described thus: in vivo popliteal lymph node (PLN) test procedure (mixed lymphocyte reaction). Conditions: for PLN (ratio): Table 1, daily p.o. Day 0 to Day 4. More on the design: species or system mice (irradiated BALB/c spleen cells into C3H recipients). The procedure: (§1) Immunosuppressive activity was evaluated in an in vitro standard pharmacological test procedure to measure lymphocyte proliferation (LAF) and in two in vivo standard pharmacological test procedures. The first in vivo procedure was a popliteal lymph node (PLN) test procedure which measured the effect of compounds of this invention on a mixed lymphocyte reaction and the second in vivo procedure evaluated the survival time of a pinch skin graft.
A mixed lymphocyte reaction (MLR) occurs when lymphoid cells from genetically distinct animals are combined in tissue culture. Each stimulates the other to undergo blast transformation which results in increased DNA synthesis that can be quantified by the incorporation of tritiated thymidine. Since stimulating a MLR is a function of disparity at Major Histocompatibility antigens, an in vivo popliteal lymph node (PLN) test procedure closely correlates to host vs. graft disease. Briefly, irradiated spleen cells from BALB/c donors are injected into the right hind foot pad of recipient C3H mice. The drug is given daily, p.o. from Day 0 to Day 4. On Day 3 and Day 4, tritiated thymidine is given i.p., b.i.d. On Day 5, the hind popliteal lymph nodes are removed and dissolved, and radioactivity counted. The corresponding left PLN serves as the control for the PLN from the injected hind foot. Percent suppression is calculated using the non-drug treated animals as allogenic control. […] Results are expressed by the following ratio: [formula]

A further experiment deals with pinch skin graft. The experiment can be described thus: survival time of pinch skin graft. The format is in vivo, mice (male DBA/2 donors, male BALB/c recipients). As to the method:
as §1
The second in vivo test procedure is designed to determine the survival time of pinch skin graft from male DBA/2 donors transplanted to male BALB/c recipients. The method is adapted from Billingham R. E. and Medawar P. B., J. Exp. Biol. 28:385-402, (1951). Briefly, a pinch skin graft from the donor is grafted on the dorsum of the recipient as a homograft, and an autograft is used as control in the same region. […] Untreated recipients serve as rejection control. The graft is monitored daily and observations are recorded until the graft becomes dry and forms a blackened scab. This is considered as the rejection day. The mean graft survival time (number of days ±S.D.) of the drug treatment group is compared with the control group.

For another experiment, the system named is Candida albicans 3669. The experiment can be described thus: antifungal plate assay (MIC). The format is cell-based. Conditions: strain 3669, plate disk assay. The procedure:
(§2) The following represents the typical assay procedure used. Compound to be tested was placed on sterile dried 1/4" plate disks, and allowed to dry. Agar plates were seeded with fungi and allowed to solidify. The impregnated disks were placed on the seeded Agar surface and incubated for the time required for the particular culture. Results are expressed in MIC (μg/ml) to inhibit growth.

Experiment [2] deals with Candida albicans ATCC 10231. In words: antifungal plate assay (MIC). Particulars: ATCC10231, plate disk assay. The format is cell-based. As to the method: as §2
For experiment [3], the system named is Candida albicans ATCC 38246. The experiment can be described thus: antifungal plate assay (MIC). The format is cell-based. Particulars: ATCC38246, plate disk assay. The procedure: as §2
Experiment [4] has as its system Candida albicans ATCC 38247. In words: antifungal plate assay (MIC). In kind it is cell-based. Conditions: ATCC38247, plate disk assay. The procedure:
as §2

The test system of experiment [5] is Candida albicans ATCC 38248. The experiment can be described thus: antifungal plate assay (MIC). The format is cell-based. Particulars: ATCC38248, plate disk assay. The procedure: as §2
Another experiment relates to Candida albicans. Conditions: in vitro and in vivo; cited from earlier work.
The subject of experiment [6] is experimental allergic encephalomyelitis. Particulars: model for multiple sclerosis; cited from earlier work.
A further experiment deals with adjuvant arthritis. Particulars: model for rheumatoid arthritis; cited from earlier work.
The test system of the next experiment is IgE-like antibodies. Particulars: in vivo; cited from earlier work.
The subject of the next experiment is transplant rejection. Particulars: cited from earlier work.

In brackets after ≈: the same amount, converted by molar mass.

Broadly, the MIC is the least concentration at which growth counts as inhibited. Read a low MIC as inhibition by little substance. For `CO[C@H]1C[C@@H]2CC[C@@H](C)[C@@](O)(O2)C(=O)C(=O)N2CCCC[C@H]2C(=O)O[C@H]([C@H](C)C[C@@H]2CCC(=O)[C@H](OC)C2)CC(=O)[C@H](C)/C=C(\C)[C@@H](O)[C@@H](OC)C(=O)[C@H](C)C[C@H](C)/C=C/C=C/C=C/1C` [42-oxorapamycin], the “PLN test result in words” value in experiment [1] (interpretation of negative PLN ratio) is recorded as “may cause T cell proliferation”. In experiment [1], the “PLN (ratio)” value is listed as -0.93. In addition, the “Skin Graft survival time (days + SD)” value in the experiment on pinch skin graft (mean ± S.D., intraperitoneally) is listed as 10.17 ± 0.41 days. Besides, the “survival time of the skin graft, in words” value with pinch skin graft (vs rejection within 6-7 days without immunosuppressive agent) was “increased survival time”. The MIC against Candida albicans 3669 is 0.05 µg/mL (≈ 0.0548 µM); in [2], 0.006 µg/mL (≈ 0.00658 µM); in experiment [3], 0.05 µg/mL (≈ 0.0548 µM); in experiment [4], 0.125 µg/mL (≈ 0.137 µM); in [5] it was 0.025 µg/mL (≈ 0.0274 µM).

For `CO[C@H]1C[C@@H]2CC[C@@H](C)[C@@](O)(O2)C(=O)C(=O)N2CCCC[C@H]2C(=O)O[C@H]([C@H](C)C[C@@H]2CC[C@@H](O)[C@H](OC)C2)CC(=O)[C@H](C)/C=C(\C)[C@@H](O)[C@@H](OC)C(=O)[C@H](C)C[C@H](C)/C=C/C=C/C=C/1C` [Rapamycin, rapamycin], the “Percent suppression (PLN)” value in experiment [1] (6 mg/kg, p.o., vs non-drug treated allogenic control) came out at 86%. Also, the “PLN (ratio)” value in experiment [1] is 1.0. Moreover, the MIC came out at 0.025 µg/mL (≈ 0.0273 µM) against Candida albicans 3669; 0.003 µg/mL (≈ 0.00328 µM) in [2]; 0.025 µg/mL (≈ 0.0273 µM) in experiment [3]; 0.003 µg/mL (≈ 0.00328 µM) in experiment [4]; 0.006 µg/mL (≈ 0.00656 µM) in [5]. Also, the antifungal activity result with Candida albicans is given as “antifungal activity”. Moreover, the “effect in experimental allergic encephalomyelitis model” value in experiment [6] was “effective”. In addition, the “effect in adjuvant arthritis model” value in the experiment on adjuvant arthritis was “effective”. Further, in the experiment with IgE-like antibodies, the “inhibition of formation of IgE-like antibodies” value is given as “effectively inhibited”. Moreover, the “inhibition of transplant rejection” value in the experiment with transplant rejection is on record as “effective in inhibiting transplant rejection”.

The values are drawn from patent publication US5023263A, “42-oxorapamycin” (American Home Products Corporation, priority 1990, dated 1991).
